Measurements reported in patent US12077503B2, “Substituted cyclic amides and their use as herbicides” (FMC CORPORATION, priority 2015, dated 2024).

Experiments:
Assay type in all cases: in vivo
[1] = test system: ragweed (common ragweed, Ambrosia elatior); test: Test A preemergence; conditions: Ambrosia artemisiifolia, pre-emergence, 240 h, preemergence, read-out: Plant response rating, Ragweed; for pest or weed control at 125 g/ha: 125 g ai/ha, visual rating after approx. 10 d, 0 to 100 scale where 0 is no effect and 100 is complete control; for pest or weed control at 500 g/ha: 500 g ai/ha, 0 to 100 scale, 0 = no effect, 100 = complete control
In short: (§1)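 Preemergence directed soil spray on seeded pots, or postemergence application to plants 2–10 cm, one- to two-leaf. Solvent mixture non-phytotoxic, with surfactant. Scored ~10 d later, visually, 0–100 vs untreated.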

[2] = test system: pigweed (Amaranthus retroflexus); test: Test A preemergence; conditions: Amaranthus retroflexus, pre-emergence, 240 h, preemergence, read-out: Plant response rating, Pigweed; for pest or weed control at 125 g/ha: 125 g ai/ha, visual rating after approx. 10 d, 0 to 100 scale where 0 is no effect and 100 is complete control; for pest or weed control at 500 g/ha: 500 g ai/ha, 0 to 100 scale, 0 = no effect, 100 = complete control
[3] = test system: giant foxtail (Setaria faberii); test: Test A preemergence; conditions: Setaria faberi, pre-emergence, 240 h, preemergence, read-out: Plant response rating, Foxtail, Giant; for pest or weed control at 125 g/ha: 125 g ai/ha, visual rating after approx. 10 d, 0 to 100 scale where 0 is no effect and 100 is complete control; for pest or weed control at 500 g/ha: 500 g ai/ha, 0 to 100 scale, 0 = no effect, 100 = complete control
In short: as §1

[4] = test system: Kochia (Kochia scoparia); test: Test A preemergence; conditions: Bassia scoparia, pre-emergence, 240 h, preemergence, read-out: Plant response rating, Kochia; for pest or weed control at 125 g/ha: 125 g ai/ha, visual rating after approx. 10 d, 0 to 100 scale where 0 is no effect and 100 is complete control; for pest or weed control at 500 g/ha: 500 g ai/ha, 0 to 100 scale, 0 = no effect, 100 = complete control
In short: as §1

[5] = test system: barnyardgrass (Echinochloa crus-galli); test: Test A preemergence; conditions: Echinochloa crus-galli, pre-emergence, 240 h, preemergence, read-out: Plant response rating, Barnyardgrass; for pest or weed control at 125 g/ha: 125 g ai/ha, visual rating after approx. 10 d, 0 to 100 scale where 0 is no effect and 100 is complete control; for pest or weed control at 500 g/ha: 500 g ai/ha, 0 to 100 scale, 0 = no effect, 100 = complete control
In short: as §1

[6] = test system: ryegrass, Italian (Italian ryegrass, Lolium multiflorum); test: Test A preemergence; conditions: Lolium multiflorum, pre-emergence, 240 h, preemergence, read-out: Plant response rating, Ryegrass, Italian; for pest or weed control at 125 g/ha: 125 g ai/ha, visual rating after approx. 10 d, 0 to 100 scale where 0 is no effect and 100 is complete control; for pest or weed control at 500 g/ha: 500 g ai/ha, 0 to 100 scale, 0 = no effect, 100 = complete control
In short: as §1

[7] = test system: ragweed (common ragweed, Ambrosia elatior); test: Test A postemergence; conditions: Ambrosia artemisiifolia, post-emergence, 240 h, 125 g ai/ha, postemergence; visual injury after approximately 10 d; 0 to 100 scale (0 no effect, 100 complete control); read-out: Plant response rating, Ragweed
In short: as §1

[8] = test system: pigweed (Amaranthus retroflexus); test: Test A postemergence; conditions: Amaranthus retroflexus, post-emergence, 240 h, 125 g ai/ha, postemergence; visual injury after approximately 10 d; 0 to 100 scale (0 no effect, 100 complete control); read-out: Plant response rating, Pigweed
In short: as §1

[9] = test system: giant foxtail (Setaria faberii); test: Test A postemergence; conditions: Setaria faberi, post-emergence, 240 h, 125 g ai/ha, postemergence; visual injury after approximately 10 d; 0 to 100 scale (0 no effect, 100 complete control); read-out: Plant response rating, Foxtail, Giant
In short: as §1

[10] = test system: corn (Zea mays); test: Test A postemergence; conditions: Zea mays, post-emergence, 240 h, 125 g ai/ha, postemergence; visual injury after approximately 10 d; 0 to 100 scale (0 no effect, 100 complete control)
In short: as §1

[11] = test system: Kochia (Kochia scoparia); test: Test A postemergence; conditions: Bassia scoparia, post-emergence, 240 h, 125 g ai/ha, postemergence; visual injury after approximately 10 d; 0 to 100 scale (0 no effect, 100 complete control); read-out: Plant response rating, Kochia
In short: as §1

[12] = test system: barnyardgrass (Echinochloa crus-galli); test: Test A postemergence; conditions: Echinochloa crus-galli, post-emergence, 240 h, 125 g ai/ha, postemergence; visual injury after approximately 10 d; 0 to 100 scale (0 no effect, 100 complete control); read-out: Plant response rating, Barnyardgrass
In short: as §1

[13] = test system: Galium (catchweed bedstraw, Galium aparine); test: Test A postemergence; conditions: Galium, post-emergence, 240 h, 125 g ai/ha, postemergence; visual injury after approximately 10 d; 0 to 100 scale (0 no effect, 100 complete control); read-out: Plant response rating, Galium
In short: as §1

[14] = test system: blackgrass (Alopecurus myosuroides); test: Test A postemergence; conditions: Alopecurus myosuroides, post-emergence, 240 h, 125 g ai/ha, postemergence; visual injury after approximately 10 d; 0 to 100 scale (0 no effect, 100 complete control); read-out: Plant response rating, Blackgrass
In short: as §1

[15] = test system: wheat (Triticum aestivum); test: Test A postemergence; conditions: Triticum aestivum, post-emergence, 240 h, 125 g ai/ha, postemergence; visual injury after approximately 10 d; 0 to 100 scale (0 no effect, 100 complete control); read-out: Plant response rating, Wheat
In short: as §1

SMILES | pest or weed control at 125 g/ha [1] [%] | pest or weed control at 500 g/ha [1] [%] | pest or weed control at 125 g/ha [2] [%] | pest or weed control at 500 g/ha [2] [%] | pest or weed control at 125 g/ha [3] [%] | pest or weed control at 500 g/ha [3] [%] | pest or weed control at 125 g/ha [4] [%] | pest or weed control at 500 g/ha [4] [%] | pest or weed control at 125 g/ha [5] [%] | pest or weed control at 500 g/ha [5] [%] | pest or weed control at 125 g/ha [6] [%] | pest or weed control at 500 g/ha [6] [%] | pest or weed control at 125 g/ha [7] [%] | pest or weed control at 125 g/ha [8] [%] | pest or weed control at 125 g/ha [9] [%] | Corn plant response rating (crop injury, 0 = no effect, 100 = complete kill) at 125 g/ha [10] [%] | pest or weed control at 125 g/ha [11] [%] | pest or weed control at 125 g/ha [12] [%] | pest or weed control at 125 g/ha [13] [%] | pest or weed control at 125 g/ha [14] [%] | also measured
CCc1cc(CC)cc([C@H]2CN(C)C(=O)[C@@H]2C(=O)Nc2ccccc2F)c1 [Compound 735] | 0 | 0 | 0 | 20 | 90 | 90 | 20 | 80 | 90 | 90 | 80 | 90 | 0 | 20 | 90 | 80 | 30 | 90 | 40 | 50 | plant injury at 125 g/ha [15]: 50%
CN1C[C@H](c2ccc(F)c(OC(F)(F)C(F)F)c2)[C@@H](C(=O)Nc2ccccc2F)C1=O [Compound 740] | 40 | 50 | 70 | 80 | 100 | 100 | 80 | 90 | 90 | 90 | 60 | 80 | 0 | 40 | 90 | 70 | 40 | 90 | 50 | 30 | plant injury at 125 g/ha [15]: 50%
